Data published in the OPERA property sets (Mansouri et al. 2018).

Structure (SMILES) | logP
COC(=O)c1c(C)[nH]c(-c2cccc(Cl)n2)c1C(=O)OC | 2.65
CCc1cc2n(c1C(=O)c1ccc(F)cc1)CCC2C(=O)O (configuration not stated) | 3.63
c1ccc(C2(N3CCCCC3)CCCCC2)cc1 | 4.69
CCCCCCNC(=O)n1cc(F)c(=O)[nH]c1=O | 2.63
CC1CCC=C2N(C)C=C(C(N)=O)C(=O)N21 (configuration not stated) | 0.12
NC(=O)NCCCCn1nc(-c2ccccc2)ccc1=O | 1.21
Cn1c([N+](=O)[O-])cnc1COC(N)=O | -0.38
N=C(N)N1CCc2ccccc2C1 | 0.75
CNC(=O)Oc1cc(C)ccc1C(C)C | 2.84
O=C1C=CC(=O)c2c(O)ccc(O)c21 | 1.79
O=C(OC[C@H]1O[C@@H](n2cc(I)c(=O)[nH]c2=O)C[C@@H]1O)c1ccccc1 | 1.4
Cc1cc(=O)c(=O)[nH][nH]1 | -0.3
Cc1ccc(C)c(C)c1C | 4
CCc1c(C)nc2n(c1=O)C(C)CCC2 (configuration not stated) | 1.43
CCOc1ccc(C=NNC(=N)N)cc1 | 0.24
Clc1cccc2cccc(Cl)c12 | 4.3
CCOC(=O)C1=C(C)NC(C)=C(C(=O)OCC)C1c1ccccc1/C=C/C(=O)OC(C)(C)C | 5.2
Nc1ccc(C(=O)O)cc1I | 2.36
CCCCCCn1ccc(=O)c(O)c1C | 1.9
Cn1cnc([N+](=O)[O-])c1Cl | 1.06
Cc1ncc([N+](=O)[O-])n1CC(O)Cn1c([N+](=O)[O-])cnc1C | 0.31
Cc1cc(O)c(N)nn1 | -0.85
OC(Cn1ccnc1)(c1cccc(Br)c1)c1ccc(F)cc1F (configuration not stated) | 3.6
COC(=O)NC1=NCC(c2cccc(Cl)c2)N1C (configuration not stated) | 2.1

Structure (SMILES) | logP
ClC(Br)Br | 2.16
O=C(O)Cc1ccc(O)c(O)c1 | 0.98
CC(C)(C)NCC(O)COc1cccc2c1C[C@H](O)[C@H](O)C2 (some centres not stated) | 0.81
OC(Cn1ccnc1)(c1ccc(F)cc1)c1ccc(-c2ccncc2)cc1 (configuration not stated) | 2.47
CCOc1cccc(-c2nnc(S)n(C)c2=O)c1 | 2.67
CC(C)C1NC(=O)NC1=O (configuration not stated) | -0.36
C[C@@H]1O[C@@H](O[C@@H]2C=C3CC[C@@H]4[C@H](CC[C@]5(C)[C@@H](c6ccc(=O)oc6)CC[C@]45O)[C@@]3(C)CC2)[C@H](O)[C@H](O)[C@H]1O | 2.48
CCOP(=O)(O)Cc1ccc(S(C)(=O)=O)cc1 | -0.4
Cc1cc2n(c1C(=O)c1ccc(Cl)cc1)CCC2C(=O)O (configuration not stated) | 3.6
O=C(O)Cc1ccc(C2CCCCC2)cc1 | 3.91
CCN(CC)C(=O)c1ccccc1C | 2.02
CCC1(c2ccccc2)NC(=O)N(C)C1=O (configuration not stated) | 1.69
O=C(O)COc1ccc(Oc2ccc(Cl)cc2Cl)cc1 | 4.51
CCCCCCOc1ccc(CC(=O)O)cc1 | 3.96
CC(C)(C)C(COc1ccc(Br)cc1)OC(=S)n1ccnc1 (configuration not stated) | 5.11
CCOC(=O)C1=C(C)NC(C)=C(C(=O)OC)C1c1cccc(Cl)c1Cl (configuration not stated) | 3.86
CN(C)CCN1C(=O)c2ccccc2Nc2cc(Cl)ccc21 | 3.73
COc1ccc(-c2nc3ncc(N)cc3[nH]2)c(OC)c1 | 1.62
CCCCCCN(C)C(=O)c1cccc(Oc2ccccc2)c1 | 5.01
CCON1C(=O)CC2(CCCC2)C1=O | 1.26
O=[N+]([O-])c1ccc(Oc2ccc(Cl)cc2Cl)cc1 | 4.64
CC1=C(C)C(=O)C(Cc2cccnc2)=C(C)C1=O | 2.55
NS(=O)(=O)c1cc2c(cc1Br)NC=NS2(=O)=O | 0
NC(=S)NNCc1ccc2c(c1)OCO2 | 0.14

Structure (SMILES) | logP
CC(=O)OCC1=C(C(=O)O)N2C(=O)C(NC(=O)Cc3cc4ccccc4s3)C2SC1 (configuration not stated) | 1.68
CCCCCCCS[C@@H]1O[C@H](CO)[C@H](O)[C@H](O)[C@H]1O | 1.5
COc1ncc(-c2ccncc2)cc1C#N | 2.02
CC(C)N(CCC(CCN1CCCCC1)(C(N)=O)c1ccccc1Cl)C(C)C (configuration not stated) | 4.78
Nc1nc(=O)n(C2OC(CO)CC2F)cc1Cl (configuration not stated) | -0.46
CCCCC(=O)CC(=O)CCCC | 3.56
O=CNCC#CCC(NC(=O)C(Cc1ccc2ccccc2c1)Cc1cccc2ccccc12)C(=O)NC(CC1CCCCC1)C(O)CC(=O)NCCN1CCOCC1 (configuration not stated) | 5.44
Nc1nc(=O)n(C2OC(CO)CC2F)cc1F (configuration not stated) | -0.92
CCNC(=O)NCCCCn1nc(-c2ccccc2)ccc1=O | 1.83
CCN(CC)CCC(=O)c1sc(N)nc1C | 1.76
COc1c(Cl)cc(Cl)c(O)c1C(=O)NCC1CCCN1CCF (configuration not stated) | 3.66
OCC1OC(O)C(O)C(O)C1O (configuration not stated) | -3.24
COc1cccc(C2C(=O)c3ccccc3C2=O)c1 | 2.88
CNC(=O)NCCCCn1nc(-c2ccccc2)ccc1=O | 1.23
CCCC(=NOCC)C1C(=O)CC2(CCSCC2)OC1=O (configuration not stated) | 2.9
CC(=O)N1c2ccc(C)cc2C2CN(C)CCC21 (configuration not stated) | 1.25
CNc1nc(C)c(C(=O)CCN2CCCCC2)s1 | 2.21
CCCCCCCCO[C@@H]1O[C@H](CO)[C@H](O)[C@H](O)[C@H]1O | 1.46
CCCCC(CC)C(=O)N1c2ccc(C)cc2C2CN(C)CCC21 (configuration not stated) | 4.14
Cn1c(S)nnc(-c2ccc(F)cc2)c1=O | 2.38
CC1(C)S[C@@H]2[C@H](NC(=O)[C@H](N)c3ccc(O)cc3)C(=O)N2[C@H]1C(=O)O | 0.87
CCOC(=O)NC1=NCC(c2ccc(CO)cc2)N1C (configuration not stated) | 0.84
CNC12CC=CCC1c1ccccc1C2 (configuration not stated) | 3.28
Nc1ncn(C2OC(CO)C(O)C2O)c(=O)n1 (configuration not stated) | -2.17

Structure (SMILES) | logP
CCCCn1ccc(=O)c(O)c1C | 0.7
CN(C)C(=O)OCc1ccc(C(N)=O)cc1 | 0.77
Cc1ccc(Cn2cc(F)c(=O)[nH]c2=O)cc1 | 1.5
COC(=O)NC1=NCC(c2ccccc2F)N1C (configuration not stated) | 1.53
Cc1c(O)c(=O)ccn1C(C)C | 0.05
COC(=O)C1CC2C3CCC4=CC(=O)C=CC4(C)C3C(O)CC2(C)C1C(=O)CO (configuration not stated) | 1.7
CC[C@H](C)C(=O)O[C@H]1CCC=C2C=C[C@H](C)[C@H](CC[C@@H]3C[C@@H](O)CC(=O)O3)[C@H]21 | 3.95
CCCCCCC(=O)N(C)c1ccc(S(=O)(=O)N(C)C)cc1 | 2.61
OC(Cn1ccnc1)(c1ccc(F)cc1)c1ccc(F)cc1 | 2.95
Nc1cc(Cl)c(Cl)c(Cl)c1Cl | 4.27
CNC12CCCCC1COc1ccccc12 (configuration not stated) | 3.31
CCNC1C2CCC(C2)C1c1ccccc1 (configuration not stated) | 3.2
COC(=O)NC1=NCC(c2cccc(Br)c2)N1 (configuration not stated) | 2.09
O=[N+]([O-])c1cnc(N2CCNC2=S)s1 | 1.7
CCC12CCN(CC3(O)CC3)C(Cc3ccc(O)cc31)C2(C)C (configuration not stated) | 3.82
O=c1c2ccccc2nc2n1CCCCC2 | 2
Nc1ccc(C(F)(F)F)cc1 | 1.95
Cc1nc(N)sc1C(=O)CCN1CCCC1 | 1.74
CCC(C(=O)OCc1ccccc1C)C(CO)Cc1cncn1C (configuration not stated) | 2.42
CNC(=O)Oc1cc(C)c(N(C)C)c(C)c1 | 2.56
N[C@H]1CCc2ccccc2[C@H]1O | 0.86
Nc1ccc(S(=O)(=O)N2C(=O)NC(=O)C2(c2ccccc2)c2ccccc2)cc1 | 3.27
CCC(O)C(CC(C)N(C)C)(c1ccccc1)c1ccccc1 (configuration not stated) | 4.27
Cc1cccc2nc3n(c(=O)c12)CCC3 | 1.59

Structure (SMILES) | logP
CCCCSc1nnc(C(C)C)c(=O)n1N | 3.21
CCCN1CCOC2c3cccc(O)c3OCC21 (configuration not stated) | 1.93
COc1ccc2c(=O)c(C)c(-c3ccccc3)oc2c1CN(C)C | 3.65
COc1cc(S(C)=O)ccc1-c1nc2ncc(N)cc2[nH]1 (configuration not stated) | 0.33
O=C1CC2(CCCC2)C(=O)N1O | -0.26
NCC(O)c1ccc(O)cc1 (configuration not stated) | -0.9
CNC(=O)CCn1ccc(=O)c(O)c1C | -1.1
CCCC(=NOCC)C1C(=O)CC(c2ccccc2)(c2ccccc2)OC1=O (configuration not stated) | 4.75
COc1ccc(C(=O)CCCC(=O)O)cc1 | 1.63
O=c1ccnc2n1CCCC2 | -0.14
CN(Cc1ccccc1)C(=O)C(Cc1ccccc1)NC(=O)C(Cc1cn(C(=O)OC(C)(C)C)c2ccccc12)NC(=O)CC1NC(=O)C2C3CCC(CC3)N2C1=O (configuration not stated) | 5.33
CN(Cc1cccc(Br)c1)N=O | 1.65
Clc1ccncc1 | 1.28
CCNC(=O)CCn1ccc(=O)c(O)c1C | -0.82
CCN1Cn2c(nc3ccccc3c2=O)C1C (configuration not stated) | 1.02
O=C1COC(=O)N1c1ccccc1 | 0.93
Cc1ncc([N+](=O)[O-])n1CCOC(N)=O | -0.29
Nc1c(Cl)c(Cl)c(Cl)c(Cl)c1Cl | 4.82
CNC(=O)c1cccc(Oc2ccccc2)c1 | 2.86
CC(C)NC(=N)NC(=N)Nc1ccc(Cl)cc1 | 2.53
Nc1c(Cl)cccc1Cl | 2.76
Cc1cc(C)c(C)c(C)c1 | 4.1
COc1ccc(COCc2cccc(CN3CCOCC3)c2)cc1 | 2.83
CCCCN(C)N=Nc1ccc(C(N)=O)cc1 | 2.46

Structure (SMILES) | logP
CCCN1Cn2c(nc3ccccc3c2=O)C1C (configuration not stated) | 1.4
Nc1ccc(S(=O)(=O)c2c(O)cc(O)cc2O)cc1 | 1.53
CCCOC(=O)n1c(NC(=O)OC)nc2cc(C(=O)c3ccccc3)ccc21 | 3.43
Fc1ccccc1C1=NCC(=S)N(CC(F)(F)F)c2ccc(Cl)cc21 | 4.03
CNC12CC(O)CCC1CCc1ccccc12 (configuration not stated) | 2.37
Clc1cccc(Cl)c1Cl | 4.05
O=C1CNC(=O)N1Cc1ccccc1 | 0.82
O=C(OCn1c(=O)[nH]cc(F)c1=O)Oc1ccccc1 | 1.11
O=C1NC(Cc2ccccc2)C(=O)N1Cc1ccccc1 (configuration not stated) | 2.84
CC(C)(CN1CCCCC1)C(=O)c1ccccc1 | 3.78
COCC(=O)Cn1ccnc1[N+](=O)[O-] | -0.26
CCCCC1C(=O)NC(=O)N(C)C1=O (configuration not stated) | 1.1
CN(Cc1ccc(Br)cc1)N=O | 1.57
Cc1ccc2nccc(=O)n2c1 | 0.61
S=C=Nc1cccc(Cl)c1 | 3.36
CN(C)C(=O)Nc1ccc(Oc2nnnn2C2CCCCC2)cc1 | 2.18
COC1N(C2CC(F)C(CO)O2)C(=O)NC(=O)C1(C)Cl (configuration not stated) | 0.18
NCc1ccccc1Sc1ccccc1CO | 2.39
CCc1[nH]ccc(=O)c1O | 0.05
NCCCCN | -0.7
CCCOC(=O)c1ccoc1 | 2.36
CC(=O)NCc1ccc(OCC(O)CNC(C)C)cc1 (configuration not stated) | 0.32
